Experiment [1] relates to MDA-MB468 (human breast carcinoma cell line). Briefly: MTT assay, MDA MB468. The experiment is classed as cell-based. On the procedure: Compounds are tested for their ability to inhibit cell proliferation and cell viability. The metabolic conversion of 3-(4,5-dimethylthiazol-2-yl)-2,5-diphenyltetrazolium bromide (MTT, Sigma #M2128) to a reduced form is a commonly used measure of cellular viability. Following is the procedure: Cells are maintained in 75 cm^2 tissue culture flasks until ready for use. The cells are grown and plated for the assay in Dulbecco's modified Eagle's media (DMEM) containing 10% fetal bovine serum. For example, the following cell lines can be used: a) human foreskin fibroblasts (HFF); b) HT29 (human colon carcinoma cell line); c) MDA-MB468 (human breast carcinoma cell line); d) RKO (human colon adenocarcinoma cell line); e) SW620 (human colon carcinoma cell line); f A549 (human lung carcinoma cell line); and g) MIA PACA (human pancreatic carcinoma cell line). Cells are maintained at 37° C. in 10% CO2, 90% humidified air. Cells are plated in 96-well tissue culture plates at the densities listed below. 100 μL of cell suspension is added to each well of the 96-well plate except the top row of the plate which contains no cells and serves as a reference for the spectrophotometer. [table] […] Quantitation of metabolic reduction of MTT in each plate is performed by reading optical density at 570 nm wavelength on a Molecular Devices UVmax microplate reader.

Experiment [2] has as its system HDF normal diploid fibroblast cells. Put plainly: FACS assay (cell death), HDF. The experiment is classed as cell-based. The note with it: 50% cell death, 72 h. On the procedure: These assays allow determination of both cell death and changes in cell cycle profile in cells following treatment of the compound. The assay is performend as follows: • 1. Cells are incubated in DMEM to which 10% FCS has been added in a humidified incubator at 37° C. and 5% by volume of CO2 in air. The cells are innoculated in 6-well plates at a density of 0.5–5×10^5 cells per well. • 2. The test compound is added in serial dilutions 24–36 h after plating in 0.5% DMSO. The plates are then incubated a further 72 h in the presence of the compound. During this time, cells in control cultures undergo at least three cell divisions. • 3. After incubation, the media is collected and cells are harvested by trypsinization. The cells and media are pooled and pelleted by centrifugation. • 4. The cell pellet is fixed in a final volume of 3 mL of 50% ice cold MeOH and incubated for a minimum of 30 min at −20° C. • 5. The cells are pelleted by centrifugation and resuspended in 0.5 mL PBS containing 1%FCS, […] Propidium Iodide (PI) and 5 mg/mL RNase A and incubated 30 min at 37° C. in the dark. • 6. The samples are analysed by flow cytometry using the relative incorporation of PI as a measure of DNA content of each cell. The % Dead cells is recorded as % of events with less than 2N DNA. […] HDF are normal diploid fibroblast cells. RKO are colon adenocarcinoma cells and MES/SA are ovarian carcinoma cells.

For experiment [3], the target named is CDK1 (Homo sapiens, UniProt P06493). Put plainly: CDK1 substrate phosphorylation assay. The experiment is classed as biochemical. As to the method:
Cyclin dependent protein kinase assays utilized the peptides Biotin-aminohexyl-[…] and Biotin-aminohexyl-[…]-NH2 as phosphoryl group acceptors. CDK1 and CDK2 were both expressed utilizing a baculovirus expression system and were partially purified to comprise 20–80% of total protein, with no detectable competing reactions present. Typically, assays were performed by incubating either enzyme (0.2–10 nM), with and without inhibitor, one of the two peptide substrates (1–10 nM), [γ-^32P]ATP (1–20 nM), and 10–20 mM Mg^2+ for periods of time generally within the range 10–120 min. Reactions were terminated with 0.2–2 volumes of either 20% acetic acid or 50–100 mM EDTA buffered to pH 7 (substrate consumption <20%). The buffer employed in enzyme assays was either 30 mM HEPES 7.4 containing 0.15 M NaCl and 5% DMSO, the buffer 50 mM MOPS 7.0 containing 0.15 M NaCl and 5% DMSO, or the buffer 100 mM HEPES pH 7.5 containing 0.1 mg/mL BSA and 5% DMSO. Inhibitors were diluted in 100% DMSO prior to addition into the assay. […]

Molecules are shown by their SMILES.

Sequence of CDK1 (P06493 whole entry): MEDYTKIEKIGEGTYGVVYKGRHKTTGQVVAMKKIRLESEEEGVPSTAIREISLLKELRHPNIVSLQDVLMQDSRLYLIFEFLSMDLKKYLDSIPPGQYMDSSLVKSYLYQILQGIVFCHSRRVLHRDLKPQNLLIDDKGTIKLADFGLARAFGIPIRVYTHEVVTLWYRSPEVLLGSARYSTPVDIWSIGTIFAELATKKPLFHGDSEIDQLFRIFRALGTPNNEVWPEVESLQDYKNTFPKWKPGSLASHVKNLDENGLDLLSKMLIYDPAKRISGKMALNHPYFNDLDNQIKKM
Sequence of CDK1 (P14635 whole entry partner): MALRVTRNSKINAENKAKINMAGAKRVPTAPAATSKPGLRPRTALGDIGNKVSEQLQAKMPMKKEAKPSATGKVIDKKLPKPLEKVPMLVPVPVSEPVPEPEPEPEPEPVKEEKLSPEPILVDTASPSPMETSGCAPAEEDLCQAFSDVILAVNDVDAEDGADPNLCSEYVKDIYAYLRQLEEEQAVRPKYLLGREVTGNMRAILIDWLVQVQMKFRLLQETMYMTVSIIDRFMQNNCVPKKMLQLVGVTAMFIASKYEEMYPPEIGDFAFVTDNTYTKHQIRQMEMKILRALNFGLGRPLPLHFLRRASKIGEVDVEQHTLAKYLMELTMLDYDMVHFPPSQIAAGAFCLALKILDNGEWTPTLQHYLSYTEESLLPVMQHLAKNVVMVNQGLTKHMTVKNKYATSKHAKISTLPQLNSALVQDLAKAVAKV

Turning to `COC(=O)c1ccc2c(c1)/C(=C/Nc1ccc(S(N)(=O)=O)cc1)C(=O)N2` [Example 27], the IC50 is 1100 to 5000 nM in experiment [1] (Homo sapiens, MDA-MB-468, 72 h) and more than 5000 nM in experiment [2].

Regarding `NS(=O)(=O)c1ccc(NN=C2C(=O)Nc3ccc(-c4cnco4)cc32)cc1` [Example 36], the half-maximal inhibitory concentration (IC50) is 1 to 10 nM in experiment [3] and more than 5000 nM in experiment [2].

As for `O=C1Nc2ccc3ncsc3c2C1=CNc1ccc(S(=O)(=O)NCc2ccncc2)cc1` [Example 104, 4-[(7-Oxo-6,7-dihydro-1-thia-3,6-diaza-as-indacen-8-ylidenemethyl)amino]-N-pyridinyl-4-yl-methyl benzenesulfonamide], the IC50 fell in the range of 11 to 50 nM in experiment [3] and 1100 to 5000 nM in experiment [1] (72 h).

For the origin of these results see patent US7105529B2, “Substituted oxindole derivatives as protein tyrosine and as protein serine/threonine kinase inhibitors and compositions and methods of treating chemotherapy and radiation therapy side effects” (SmithKline Beecham Corporation, priority 1997, dated 2006).
